Like-named read-outs stand apart in the source and are kept apart here. Where no end group is shown, it is not given here.
Tests used:
[1] = target: ACE2; conditions: compared with KKCH-ACE2 affinity; cited from earlier work
[2] = test system: ACE2; conditions: reduces the affinity between spiny proteins and ACE2; cited from earlier work
[3] = test system: virus S1 protein and the ACE2 receptor; conditions: cited from earlier work
[4] = test system: HEK293T; conditions: 394.10 μM; cited from earlier work
[5] = target: T1, ACE2 protein (Homo sapiens, UniProt Q9BYF1); assay: SPR affinity for ACE2 (Biacore T200, CM5 chip); conditions: ACE2 on CM5 chip, 1:1 Langmuir binding model, read-out: association (Ka)
T1 construct: purchased CUSABIO (Wuhan, China) CSB-MP866317HU
Procedure: The ACE2 protein (no. CSB-MP866317HU) was a recombinant human protein purchased from CUSABIO (Wuhan, China). […] The ACE2 protein was diluted to 50 μg/mL with sodium acetate at pH 4.0. The protein was fixed on the CM5 chip at a flow rate of 10 μL/min, and the coupling time was 420 s. […] Biacore T200 Control software (v.2.0) was used to collect sample data, and the 1:1 Langmuir binding model was fitted globally to determine the final KD. The binding affinity KD could be calculated from dissociation (Kd)/association (Ka).

[6] = target: T2, S1-RBD/ACE2 (Homo sapiens, UniProt Q9BYF1); assay: ELISA inhibition of S1-RBD binding to ACE2 (RayBio COVID-19 Spike ACE2 binding assay kit II); design: species or system SARS-CoV-2 (S1-RBD); conditions: 2 h, room temperature, 450 nm, repeated twice in each group, read-out: inhibitory rate on S1-RBD/ACE2
T2 construct: purchased RayBio (RayBiotech)
Procedure: The RayBio COVID-19 Spike ACE2 binding assay kit II (no. QHD43416) was used to detect the inhibitory effect of the KKCH peptides on the binding of the RBD protein and the ACE2 receptor protein. Using a PBS solution, KKCH was diluted to 10 μM, 90 μM, 180 μM, 360 μM, 720 μM, and 1440 μM. Then, 125 μL of test reagent was obtained by mixing different concentrations of the 10 μL KKCH peptide solutions with Fc-labeled recombinant S1-RBD protein solution. Next, 100 μL of test reagent was added to each well of a 96-well plate coated with the recombinant ACE2 protein, repeated twice in each group, and incubated at room temperature for 2 h. The plates were washed four times with a wash buffer to remove unbound S1-RBD proteins. Then, 100 μL of enzyme-labeled Anti-IgG was added to each well and incubated for 1 h, 100 μL of TMB was added at room temperature and incubated for 0.5 h, and 50 μL […] the reaction. The yellow intensity was measured at 450 nm, and the inhibition rate of the KKCH peptide was calculated.

[7] = test system: BEAS-2B cells
[8] = test system: HEK293T cells; conditions: for survival rate of HEK293T cells: 2 h
[9] = test system: Vero cells; conditions: for survival rate of Vero cells: 2 h
[10] = test system: SARS-CoV-2 live virus; conditions: 2 h

T2 sequence (Q9BYF1 18-740): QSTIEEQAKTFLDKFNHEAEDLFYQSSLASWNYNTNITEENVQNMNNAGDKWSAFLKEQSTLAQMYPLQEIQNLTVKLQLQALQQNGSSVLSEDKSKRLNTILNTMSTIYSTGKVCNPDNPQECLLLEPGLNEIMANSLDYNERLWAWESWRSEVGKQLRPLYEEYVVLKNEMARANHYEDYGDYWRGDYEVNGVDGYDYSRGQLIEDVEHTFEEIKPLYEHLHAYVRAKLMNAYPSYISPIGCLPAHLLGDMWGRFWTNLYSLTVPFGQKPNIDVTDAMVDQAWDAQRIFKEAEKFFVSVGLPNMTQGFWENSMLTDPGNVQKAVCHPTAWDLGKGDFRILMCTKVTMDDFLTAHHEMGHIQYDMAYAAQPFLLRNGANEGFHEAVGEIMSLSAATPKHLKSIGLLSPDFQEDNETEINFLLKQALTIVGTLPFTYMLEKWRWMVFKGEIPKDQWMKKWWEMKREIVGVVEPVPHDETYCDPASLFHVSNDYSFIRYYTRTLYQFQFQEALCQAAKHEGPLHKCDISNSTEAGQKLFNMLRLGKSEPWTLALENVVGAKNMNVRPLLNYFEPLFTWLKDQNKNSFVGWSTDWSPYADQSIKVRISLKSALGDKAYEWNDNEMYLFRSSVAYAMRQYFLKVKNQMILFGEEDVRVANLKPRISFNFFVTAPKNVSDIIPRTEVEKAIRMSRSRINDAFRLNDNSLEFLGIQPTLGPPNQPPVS
T1 sequence (Q9BYF1 18-805): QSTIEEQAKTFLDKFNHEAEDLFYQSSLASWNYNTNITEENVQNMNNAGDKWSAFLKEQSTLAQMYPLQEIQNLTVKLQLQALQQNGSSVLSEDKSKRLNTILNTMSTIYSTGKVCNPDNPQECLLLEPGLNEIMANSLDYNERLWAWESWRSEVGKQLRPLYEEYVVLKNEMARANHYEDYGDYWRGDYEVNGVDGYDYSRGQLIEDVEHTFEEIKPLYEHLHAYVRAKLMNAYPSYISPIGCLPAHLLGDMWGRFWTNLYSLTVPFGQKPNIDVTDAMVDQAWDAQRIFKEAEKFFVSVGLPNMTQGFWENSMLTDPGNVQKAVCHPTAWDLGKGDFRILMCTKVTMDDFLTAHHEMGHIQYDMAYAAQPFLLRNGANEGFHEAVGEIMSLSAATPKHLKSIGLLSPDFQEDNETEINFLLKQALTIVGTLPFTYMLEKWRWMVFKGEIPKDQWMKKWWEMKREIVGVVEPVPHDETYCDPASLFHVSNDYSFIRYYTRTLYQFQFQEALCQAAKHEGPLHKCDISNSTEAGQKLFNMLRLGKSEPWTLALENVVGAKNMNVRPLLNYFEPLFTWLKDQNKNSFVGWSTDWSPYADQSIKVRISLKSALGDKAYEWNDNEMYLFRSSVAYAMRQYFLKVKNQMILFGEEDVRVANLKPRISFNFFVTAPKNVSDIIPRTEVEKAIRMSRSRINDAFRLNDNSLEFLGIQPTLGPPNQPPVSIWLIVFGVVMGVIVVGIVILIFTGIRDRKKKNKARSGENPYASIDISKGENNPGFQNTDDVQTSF

## tuftsin
[1]
  Kd: 460 µM

## CCN(CC)CCCC(C)Nc1ccnc2cc(Cl)ccc12 (stereo not shown) [chloroquine]
[2]
  effect on ACE2: can prevent the glycosylation of ACE2

## O=c1c(-c2ccc(O)cc2)coc2c([C@@H]3O[C@H](CO)[C@@H](O)[C@H](O)[C@H]3O)c(O)ccc12 [puerarin]
[1]
  Kd: 670 µM
[3]
  reduction of RU values of S1 protein and ACE2: 20 units

## thanatin: peptide (thanatin) derived from insects
[4]
  cytotoxicity to HEK293T: no obvious cytotoxicity

## C[C@@]1(C(=O)O)CC[C@]2(C)CC[C@]3(C)C4=CC(=O)c5c(cc(O)c(O)c5C=O)[C@]4(C)CC[C@@]3(C)[C@@H]2C1 [demethylzeylasteral]
[1]
  Kd: 1.74 µM

## KKCHFWPFPW [KKCH]
[5]
  kon: 154000 ± 1.5e+09 M⁻¹ s⁻¹
[6]; 10 μM
  inhibition at 10 µM: 6.8%
[6]; 90 μM
  inhibition at 90 µM: 10.9%
[6]; 180 μM
  inhibition at 180 µM: 17%
[6]; 360 μM
  inhibition at 360 µM: 34%
[6]; 720 μM
  inhibition at 720 µM: 89.7%
[6]; 1440 μM
  inhibition at 1440 µM: 94.1%
[7]; 40 µM
  viability rate of BEAS-2B cells: 99.80%
[7]; 80 µM
  viability rate of BEAS-2B cells: 99.77%
[7]; 160 µM
  viability rate of BEAS-2B cells: 99.37%
[7]; 240 µM
  viability rate of BEAS-2B cells: 99.63%
[7]; 320 µM
  viability rate of BEAS-2B cells: 98.07%
[7]; 400 µM
  viability rate of BEAS-2B cells: 95.87%
[7]; 480 µM
  viability rate of BEAS-2B cells: 82.95%
[7]; less than 480 μM, p > 0.05
  effect on BEAS-2B cell viability (significance): no significant effect on cell viability
[8]; 40 μM
  survival rate of HEK293T cells: 98.28%
[8]; 80 μM
  survival rate of HEK293T cells: 95.28%
[8]; 160 μM
  survival rate of HEK293T cells: 94.74%
[8]; 240 μM
  survival rate of HEK293T cells: 92.39%
[8]; 320 μM
  survival rate of HEK293T cells: 90.77%
[8]; 400 μM
  survival rate of HEK293T cells: 92.69%
[8]; 480 μM
  survival rate of HEK293T cells: 81.66%
[8]; less than 480 μM, p > 0.05
  effect on HEK293T cell viability (significance): no significant effect on cell viability
[9]; 40 to 400 µM, p > 0.05 vs control
  toxicity to Vero cells (significance): not toxic to the cells in this range
[9]; 40 μM
  survival rate of Vero cells: 97.81%
[9]; 80 μM
  survival rate of Vero cells: 96.97%
[9]; 160 μM
  survival rate of Vero cells: 98.23%
[9]; 240 μM
  survival rate of Vero cells: 96.21%
[9]; 320 μM
  survival rate of Vero cells: 95.85%
[9]; 400 μM
  survival rate of Vero cells: 92.64%
[9]; 480 μM
  survival rate of Vero cells: 90.44%
[10]; 10 μM
  inhibitory rate against SARS-CoV-2: 4.97%
[10]; 25 μM
  inhibitory rate against SARS-CoV-2: 11.32%
[10]; 50 μM
  inhibitory rate against SARS-CoV-2: 15.40%
[10]; 100 μM
  inhibitory rate against SARS-CoV-2: 17.91%
[10]; 150 μM
  inhibitory rate against SARS-CoV-2: 22.41%
[10]; 200 μM
  inhibitory rate against SARS-CoV-2: 32.01%
[10]; 350 μM
  inhibitory rate against SARS-CoV-2: 38.31%
[10]; 450 μM
  inhibitory rate against SARS-CoV-2: 54.80%

## C[C@@H]1C[C@H]2[C@@H]3CCC4=CC(=O)C=C[C@]4(C)[C@@]3(F)[C@@H](O)C[C@]2(C)[C@@]1(O)C(=O)CO [dexamethasone]
[1]
  Kd: 9.03 µM

Source: article PMC11277083, “A Natural Bioactive Peptide from Pinctada fucata Pearls Can Be Used as a Potential Inhibitor of the Interaction between SARS-CoV-2 and ACE2 against COVID-19” (International Journal of Molecular Sciences, 2024)
